The subject of assay [1] is extracellular 5-HT, HIAA and dopamine in the striatum of rats. Kind of assay: Microdialysis in the striatum of rats (Example 3). Format: in vivo, rat. As to conditions: 30 mg/kg i.p. How it is done:
The day before the experiment, male rats were anaesthetised with chloral hydrate (3.6%, 1 ml/100 g i.p.) and placed in a stereotaxic frame to implant a microdialysis guide cannula (CMA/12, Carnegie Medicine, Sweden). Scalp was incised in the median anterior-posterior direction between lambda and bregma and a small hole was drilled into the skull. The stereotaxic coordinates were AP=+1.0 mm, L=−3.0 mm from bregma and 1.5 mm from the skull surface for the striatum according to the atlas of Paxinos and Watson, (1986) (1). Dental cement (Sinfony(2)) was used to fix the guide cannula and anchor screws to the cranium. During the surgery rectal temperature was maintained at 37° C. using a heating blanket.
The day before the experiment the microdialysis probe (CMA/12, membrane length 4 mm, Carnegie Medicin, Sweden) was inserted into the striatum through the guide cannula. On the day of experiment the probe was perfused with Ringer solution (148 mM NaCl, 4 mM KCl, 2,4 mM CaCl2, pH=6,0). The flow rate (1 μl/min) allowed to collect 20 μl samples every 20 minutes into microvials. Microvials were stored in a fraction collector (CMA/170) at a temperature of 8° C. until analysed. Using a swivel joint the perfusion arrangement allowed the animal to move freely within a hemispherical bowl. After an adjusting time of one hour 3 consecutive 20-min-fractions were collected to establish a stable basal level of neurotransmitter release.
Thereafter 30 mg/kg E131-00139 or an equivalent volume of 0.5% tylose/PEG300 9:1, respectively, was administered. Then collecting samples was continued for at least 220 minutes.
Dialysates were directly analysed by reverse-phase high-performance liquid chromatography with electrochemical detection (HPLC-EC). The samples were separated by a ZORBAX SB-Aq 2.1 mm ID×100 mm column (Agilent Technologies). […]
Therefore data of each animal were expressed as percentages. Data from dialysates before administering the substances were averaged, and the mean set as 100%; all individual values were calculated accordingly.

The test system of assay [2] is female Wistar rats, MK-801-induced stereotypies, hyperactivity and ataxia. Briefly: MK-801-induced psychosis-related behaviour and reversibility by flumazenil (Example 7). As to conditions: for effect on other stereotypies when flumazenil is added: 30 mg/kg p.o. + flumazenil 5 mg/kg. Format: in vivo, rat. How it is done: Apart from the haloperidol rats which received haloperidol 30 minutes and MK-801 10 minutes prior to the test, the other test groups received haloperidol, ELB139 or vehicle 60 minutes prior to test, saline or flumazenil 20 minutes prior to test and MK-801 10 minutes prior to test.
The behaviour induced by the NMDA antagonist MK-801 is generally accepted as a rat model of psychosis. MK-801 induces stereotypies, hyperactivity and ataxia in rats after intraperitoneal administration.
Locomotor activity of the rats is recorded by the MotiTest Apparatus (TSE, Bad Homburg, Germany). The test area consisted of a squared arena (45×45 cm) with protective plexiglass walls (20 cm of height) where rats could freely move. Horizontal movements were recorded by 32 infrared photocells arranged along the bottom of each wall of the arena. Vertical movements (rearings) were recorded by a horizontal row of 32 infrared photocells 12 cm above the floor. The following parameters were measured by the computer program “ActiMot” (TSE, Bad Homburg, Germany): • 1. active time [s] • 2. total distance travelled [m]
Stereotypies, divided into stereotyped sniffing and other stereotypies, and ataxia are scored by the experimenter every five minutes for one hour (12 intervals) according to the method described by Andiné et al. (1999). The scores of the 12 intervals are added for each parameter.
The day of experiment the female rats are placed in the laboratory and receive the test compound, the reference substance or vehicle at the appropriate time prior to test. […]
At the beginning of the test the rats are placed in the centre of the squared arena of the MotiTest apparatus. Behaviour of the rats is recorded for one hour. After each run animals are removed and the boxes thoroughly cleaned and dried.

Setting [3] is: 30 mg/kg p.o. + flumazenil 5 mg/kg i.p., second trial.

Take `O=C1N=C(N2CCCCC2)CN1c1ccc(Cl)cc1` [ELB139, 1-(4-chlorophenyl)-4-piperidinoimidazolin-2-one]: the “HIAA concentration in the striatum” value in assay [1] was “without influencing”. In addition, the “dopamine concentration in the striatum” value in assay [1] was “did also not influence”. Moreover, the “5-HT concentration in the striatum” value in assay [1] (vs tylose vehicle) is “significantly and unexpectedly increased”. In addition, the “effect on distance travelled when flumazenil is added” value in assay [2] (30 mg/kg p.o. + flumazenil 5 mg/kg i.p., all trials and sum) is “significantly reversed”. Besides, the “effect on activity when flumazenil is added” value in assay [2] (30 mg/kg p.o. + flumazenil 5 mg/kg i.p., both tests and sum) is “significantly reversed”. Moreover, the “effect on stereotyped sniffing when flumazenil is added” value is given as “significantly reversed” in assay [2] (30 mg/kg p.o. + flumazenil 5 mg/kg i.p., first trial and sum of both trials); “distinctly antagonised” in assay [2] (setting [3]). Also, the “reducing effect on ataxia when flumazenil is added” value in assay [2] (setting [3]) is “reversed”. Also, the “reversing effect of flumazenil on the ataxia effect” value in assay [2] (30 mg/kg p.o. + flumazenil 5 mg/kg i.p., sum of both trials) is reported as “marginal”. For the same compound, the figures for the “effect on other stereotypies when flumazenil is added” value in assay [2] (first trial), in assay [2] (second trial) and in assay [2] (sum of both trials) were “rather amplified”, “distinctly reversed” and “no change”, respectively. Besides, in assay [2] (30 mg/kg p.o., both tests and sum), the “MK-801-induced increase of the distance travelled, whole time curve” value was “significantly reduced”. Also, the MK-801-induced stereotyped sniffing result in assay [2] (30 mg/kg p.o., discrete trials and sum of both trials) is recorded as “significantly reversed”. Further, the MK-801-induced other stereotypies result in assay [2] (30 mg/kg p.o., first trial) was “slightly reduced”; in assay [2] (30 mg/kg p.o., second trial and sum of both trials), “significantly reversed”. Also, the MK-801-induced ataxia entry in assay [2] (30 mg/kg p.o., first trial (November 2003)) was “hardly affected”; in assay [2] (30 mg/kg p.o., second trial (January 2004)) it was “more pronounced but still not significant”; in assay [2] (30 mg/kg p.o., sum of both trials) it was “only a slight reduction”. For the same compound, the “activity induced by MK-801, whole time curve” value in assay [2] (30 mg/kg p.o., first trial and sum of both tests) was “significantly reduced”; in assay [2] (30 mg/kg p.o., second trial) it was “distinctly reduced”.

Source of the values: patent US20050032863A1, “Method of treating or preventing central nervous system disorders with compounds having selectivity for the alpha 3 subunit of the benzodiazepine receptor” (priority 2003, published 2005).
